Experimental data: patent US11291659B2, “P38 kinase inhibitors reduce DUX4 and downstream gene expression for the treatment of FSHD” (Fulcrum Therapeutics, Inc., priority 2017, dated 2022)

Legend:
[1] = system: MBD3L2 mRNA (DUX4 downstream gene); test: MBD3L2 mRNA expression by qPCR in FSHD myotubes; assay type: cell-based, Human; settings: for IC50: Homo sapiens, Myotube, read-out: IC50, reduction of MBD3L2 mRNA expression, FSHD myotubes, realtime PCR
Method: Cell Plating: Performed three days prior to treatment, 10000 cells were plated per well on gelatinized 96-well plates, or 100000 cells on gelatinized 6-well plates.
(§1) For ASO or compound treatments cells were plate into 100 μL of Promocell growth medium containing ASO or compounds at the described concentrations.
(§2) On day 0, change to differentiation media. Remove plates from the incubator and aspirate the growth medium, Wash once with PBS, 100 μL for 96-wells and 1 mL for a 6-well plate, Add 100 μL or 2 mL of differentiation medium per well, 96- or 6-well respectively. Add antisense oligonucleotides or drug at the desire concentration and put back in the incubator. Fusion should start within day 1-2. Incubate for 3-4 days.
(§3) Cells were removed from the incubator and media aspirated. Quickly lysed following one of the following protocols: For lysis in 96-well plates direct lysis and one-step RT-Preamp qPCR protocol described below. For each 96-well prepare a mix containing: 19.5 μL Roche Realtime Ready lysis buffer, 0.25 μL RNAse inhibitor, 0.25 μL DNAseI (from Thermo not the included one in the kit). 20 μL of the mix was added to each well, mix 5 times and incubated 5 minutes at RT or alternatively shaken vigorously for 15 minutes. Lysis was observed under the microscope. Samples were frozen −80° C. at least for 15 minutes,
(§4) For qPCR, dilute 1:10 and use 2 μL for a 10 μL 1-step RT-qPCR reaction. For detection of GAPDH, RPLP0, TBP, MYOG, FRG1, MYH3, ACTN2, etc.). Per 10 μL reaction: RNA (1:10 dilution lysate) 2 μL, Fast Advanced Taqman Master Mix (2×) 5 μL, RT enzyme mix (40×) 0.25 μL, Taqman probe set (20×) 0.5 μL, H2O 2.25 μL. The following reaction protocol was run on the QuantStudio 7: 48° C. for 15 min, 50° C. for 2 min, 95° C. for 30 sec, 40×, 95° C. for 5 sec, 60° C. for 30 sec, then plates were read as specified by the manufacturer (Thermo). For 1-step RT-Preamplification used for detection of DUX4 downstream genes, i.e. MBD3L2, ZSCAN4, LEUTX, TRIM43, KHDC1L. POL2RA-VIC was used as Endogenous control). Per 10 μL reaction: RNA (1:10 dilution lysate) 2.25 μL, Taqman Pre-Amp Master Mix (2×) 5 μL, RT enzyme mix (40×) 0.25 μL, Taqman probe set (0.2×)*2.5 μL, * Pooling the TaqMan Assays: equal volumes of each 20× TaqMan® Gene Expression Assay, up to 100 assays were combined. For example, to pool 50 TaqMan assays, 10 μL of each assay were combined in a microcentrifuge tube. The pooled TaqMan assays were diluted using 1×TE buffer so that each assay is at a final concentration of 0.2×. For the above example, add 500 μL of 1×TE buffer to the pooled TaqMan assays for a total final volume of 1 mL. The QuantStudio7 protocol was used 48° C. 15 min, 95° C. 10 min, 10 cycles: 95° C. 15 sec, 60° C. 4 min, 4° C. infinite. Samples were then diluted to 50 μL and continue with the qPCR step. Per 10 μL reaction: Preamp dilution 2 μL, Fast Advanced Taqman Master Mix (2×) 5 μL, Taqman probe set (20×) 0.5 μL, H2O 2.5 μL. When multiplexing the volume was adjusted to 10 μL total). The following program was run on the QuantStudio7: 50° C. for 2 min, 95° C. for 30 sec, 40×, 95° C. for 5 sec, 60° C. for 30 sec, plates were read as per the manufacturers specifications (Thermo).
(§5) After treatment, the control and treated cells were processed for realtime PCR quantification of MBD3L2 mRNA (DUX4 downstream gene) and myogenin (MYOG) mRNA (control) expression.

[2] = system: FSHD myotubes; test: Myotube formation / fusion, MHC and DAPI staining; assay type: cell-based, Human; settings: immortalized FSHD myotubes; 1, 0.33, 0.11, 0.037 μM; 4 days
Method: as §2
Briefly, cells were fixed in 4% paraformaldehyde and […] for 10 min at room temperature. Cells were permeabilized with PBST (1×PBS solution with 0.1% Triton X-100) before blocking with 10% Normal Donkey Serum or 3% BSA (NDS) in PBST. […] DUX4 was detected by immunocytochemistry using the E5-5 antibody in differentiated FSHD myotubes. Activated Caspase-3 was detected cell signaling antibody that we're using for ICC, Asp175 (https://www.cellsignal.com/products/primary-antibodies/cleaved-caspase-3-asp175-antibody/9661).
Immortalized FHSD myotubes were differentiated and treated with DMSO vehicle control or FTX-1821 at concentrations of 1 μM, 0.33 μM, 0.11 μM, or 0.037 μM. […] The nuclei in myotubes were quantified according to MHC staining (FIG. 8B).

[3] = system: DUX4 target genes; test: RNA-seq profiling of FSHD myotubes; assay type: cell-based, Human
Source text: The 40 bp single-end reads from Illumina had good quality by checking with FastQC (http://www.bioinformatics.babraham.ac.uk/projects/fastqc/). Reads were mapped to hg19 using TopHat v2.1.1. The gene model for TopHat was created by merging known Gene in gtf format with kgXref table. Both known Gene and kgXref were downloaded from UCSC table browser in hg19 assembly. The read counts were obtained using feature Counts function from Subread package with strandness option as −r 2. Reads were normalized with DESeq2. […] Consequently, Combat was used for reducing this batch effect. Calculated standard RPKM expression values. Total gene signature is very small and defined at standard statistical cutoffs: 86/19,799 mRNA genes. DUX4-regulated gene signature is majority of total signature: 77/86 mRNA genes=90%. Non-DUX4 regulated genes is minority of total signature with moderate fold changes: 9/86 mRNA genes=10%; 2-2.7×log FC.
In addition, gene expression was also determined in wild type myotubes treated with DMSO. Three replicates for each condition were analyzed by RNA-seq and genes were clustered by the direction and intensity of change.

[4] = system: phospho MK2 to total MK2 ratio; test: p38 system target engagement in rat trapezius muscle; assay type: in vivo, Sprague-Dawley rats
Method: Pharmacodynamic analysis of p38 system target engagement in muscle tissue was performed by measuring the change in phosphor MAP kinase-activated protein kinase 2 (MK2) to total MK2 ratio before and after drug treatment.

[5] = system: DUX4 dependent target genes; test: Prediction for FSHD patient muscle from rat muscle concentrations and in vitro myotube data; parameters: species or system Human; settings: at Cmax, FSHD patient muscle biopsies
Method: P38 system target engagement persisted for at least 12 hours following the single dose of FTX-1821 (FIG. 15). P38 system target engagement in trapezius muscle was maximal when plasma and muscle concentrations of FTX-1821 were greater than 20 ng/mL or ng/g and declined at timepoints when exposures decreased. The muscle concentrations of FTX-1821 achieved in the rat study are predicted to result in >70% reduction at Cmax in DUX4 dependent target genes in FSHD patient muscle biopsies based upon in vitro data in FSHD myotubes (above).

[6] = system: myogenin (MYOG) mRNA; test: Myogenin (MYOG) mRNA expression by qPCR in FSHD myotubes (control gene); assay type: cell-based, Human
Method: as §1, §2, §3
as §4, with “For the above example, add 500 μL of 1×TE buffer to the pooled TaqMan assays for a total final volume of 1 mL. The QuantStudio7 protocol was used 48° C. 15 min, 95° C. 10 min, 10 cycles: 95° C. 15 sec, 60° C. 4 min, 4° C. infinite. Samples were then diluted to 50 μL and continue with the qPCR step. Per 10 μL reaction: Preamp dilution 2 μL, Fast Advanced Taqman Master Mix (2×) 5 μL, Taqman probe set (20×) 0.5 μL, H2O 2.5 μL. When multiplexing the volume was adjusted to 10 μL total).” left out
as §5

[7] = system: DUX4 and downstream genes ZSCAN4, TRIM43, MBD3L2, LEUTX, KHDC1L; test: DUX4-regulated downstream genes by real time PCR after DUX4 ASO; assay type: cell-based, Human; settings: FSHD myotubes
Method: as §1
Wild type myotubes were treated with DMSO control vehicle, and mature patient-derived FSHD myotubes that express DUX4 protein were treated with DMSO vehicle control or 1 μM of a DUX4 sequence-directed antisense oligonucleotide (ASO; FTX-2) purchased from Exiqon. After treatment, the myotubes were lysed in 19.5 μL of Roche Real Time Ready Lysis Buffer, 0.25 μL of DNAse1 (Ambion, AM2222), 0.25 μL of Protector RNase Inhibitor (Roche, 3335402001), and the RNA was collected in an RNeasy Micro Kit Master Mix. Expression levels of DUX4-regulated downstream genes (ZSCAN4, TRIM43, MBD3L2, LEUTX, and KHDC1L) was determined by real time PCR (ThermoFisher Scientific, 4484262), ZSCAN4 Taqman Assay (ThermoFisher Scientific, Hs00537549_m1, FAM-MGB), MYOG Taqman Assay (ThermoFisher Scientific, Hs01072232_m1, JUN-QSY), RPLP0 Taqman Assay (ThermoFisher Scientific, Hs99999902_m1), and/or LEUTX Taqman Assay (ThermoFisher Scientific, Hs00418470_m1). Ct values were extracted from QuantStudio Realtime PCR software, and Genedata was used to calculate relative levels of expression using POLR2A as a housekeeping gene.

[8] = rat trapezius muscle, single oral dose 0.3 mg/kg

Cc1c(F)cc(C(=O)NC2CC2)cc1-c1ccc(C(=O)NCC(C)(C)C)cn1 [FTX-1821]
MBD3L2 mRNA expression ([1]; FSHD1 and FSHD2 primary patient myoblast lines, 1 μM): reduction of MBD3L2
MBD3L2 expression levels ([1]; myotubes of four FSHD patient lines FTCE-016, -020, -197, -196, 1 μM): reduced in all of the FSHD lines
myotube formation or fusion [2]: no changes
Non-DUX4-regulated genes in total signature ([3]; 1 μM vs DMSO, RNA-seq): 9/86
fold changes of non-DUX4-regulated genes ([3]; 1 μM vs DMSO, RNA-seq): 2-2.7 × log FC
expression of differentially expressed (DUX4 pathway) genes ([3]; 1 μM, compared with wild type cells): normalized
plasma concentration at which inhibition of the p38 system in muscle was maximal ([4]; rat): greater than 20 ng/mL
plasma and muscle concentrations at which target engagement was maximal ([4]; rat trapezius muscle): greater than 20 ng/mL or ng/g
phospho MK2 to total MK2 ratio [4, 8]: significantly decreased
time to decrease of phospho MK2 to total MK2 ratio [4, 8]: ≤ 1 h
persistence of p38 system target engagement ([4]; rat, single oral dose 0.3 mg/kg): at least 12 hours
predicted reduction in DUX4 dependent target genes [5]: > 70%

CCc1nc(-c2cccc(C)c2)c(-c2ccnc(NC(=O)c3ccccc3)c2)s1 [TAK-715, N-(4-(2-ethyl-4-(3-methylphenyl)-1,3-thiazol-5-yl]-2-pyridyl]benzamide]
IC50 [1]: < 10 nM
MYOG mRNA expression [6]: no impact

COc1nccc(-c2c(-c3ccc(F)cc3)ncn2C2CCC(O)CC2)n1 (stereo not shown) [SB239063]
MYOG mRNA expression [6]: no impact

FTX-2: DUX4 sequence-directed antisense oligonucleotide purchased from Exiqon, CAGCGTCGGAAGGTGG (SEQ ID NO: 1) (listed as DNA, chemistry not given here)
expression of DUX4 and target genes ZSCAN4, TRIM43, MBD3L2, LEUTX, KHDC1L ([7]; 1 μM vs DMSO): reduced amounts
DUX4 and downstream gene MBD3L2 expression ([7]; different dilutions): dose dependent reduction

NC(=O)c1ccc(N(C(N)=O)c2c(F)cccc2F)nc1-c1ccc(F)cc1F [VX-702, 2-(2,4-difluorophenyl)-6-(1-(2,6-difluorophenyl)ureido)nicotinamide]
IC50 [1]: < 10 nM
MYOG mRNA expression [6]: no impact
